Assays:
[1] = system: Dengue 1 virus MY97-10245; test: High-content imaging cell-based flavivirus immunodetection (HCl-CFI) assay, Dengue 1; details: Dengue virus, A549, 48 h, read-out: Dengue 1 virus MY97-10245 in A549 using HCl [Inhibitor/IC50] Qualified AC50
[2] = system: Dengue 2 virus MY97-10340; test: High-content imaging cell-based flavivirus immunodetection (HCl-CFI) assay, Dengue 2; details: Dengue virus, A549, 48 h, read-out: Dengue 2 virus MY97-10340 in A549 using HCl [Inhibitor/IC50] Qualified AC50, A549 cells, MOI 0.3, 48 h, viral E protein expression
How it was run: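 A549 cells infected at MOI 0.3, treated with 3-fold, 10-point compound dilutions for 48 h. After paraformaldehyde fixation, viral E protein immunostained with 4G2 antibody and nuclei counterstained; imaged by high-content imaging. EC50 = concentration reducing E protein expression by 50%, from dose-response curves.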

[3] = system: Dengue 3 virus MY05-34640-WT-C6/36; test: High-content imaging cell-based flavivirus immunodetection (HCl-CFI) assay, Dengue 3; details: Dengue virus, A549, 48 h, read-out: Dengue 3 virus MY05-34640-WT-C6/36 in A549 using HCl [Inhibitor/IC50] Qualified AC50
[4] = system: Dengue 4 virus MY01-22713; test: High-content imaging cell-based flavivirus immunodetection (HCl-CFI) assay, Dengue 4; details: Dengue virus, A549, 48 h, read-out: Dengue 4 virus MY01-22713 in A549 using HCl [Inhibitor/IC50] Qualified AC50, A549 cells, 48 h, viral E protein expression
[5] = system: DENV-2 (strain TSV01); test: Antiviral in vivo efficacy in dengue mouse model; details: oral gavage, 3 consecutive days, AG129 mice, qRT-PCR
Procedure: Antiviral In Vivo Efficacy in Dengue Mouse Model
AG129 mice (lacking IFN-α/β and IFN-γ receptors, (Schul, W. et al. 2007. J. Infect. Dis., 195, 665-74)) was obtained from Biological Resource Center (BRC), Singapore. Male and female AG129 mice aged 8 to 14 weeks (weighed 20-30 grams, n=6 per group) were used. Infection of DENV-2 (strain TSV01) was given intraperitoneally (500 μL, 1.4×10^7 pfu/mL). The DENV-2 strain TSVO1 was used in the mouse model and was propagated in C6/36 mosquito cells. Compounds were formulated (% w/w) in either 0.5% methylcellulose, 0.5% Tween and 99.0% deionized water or 20% polyethylene glycol (PEG300), 10% Cremophor RH40, and 70% 100 mM pH 3 citrate buffer (% v/v). Compounds were dosed immediately after infection through oral gavage for 3 consecutive days. Terminal blood sample (anticoagulant: K2EDTA) was obtained for viremia read-out by qRT-PCR as previously described (Santiago, G. A., et al. 2013. PLoS Negl. Trop. Dis., 7, e2311).

[6] = system: DENV-2 (strain TSV01); test: Antiviral in vivo efficacy in dengue mouse model; details: 180 mg/kg single dose, oral gavage, AG129 mice, qRT-PCR

| Structure (SMILES) | EC50 [1] | EC50 [2] | EC50 [3] | EC50 [4] | Log DENV-2 viremia reduction ([5]; 30 mg/kg b.i.d.) | Log DENV-2 viremia reduction ([5]; 100 mg/kg b.i.d.) | Log DENV-2 viremia reduction ([5]; 100 mg/kg q.d.) | Log DENV-2 viremia reduction ([5]; 10 mg/kg b.i.d.) | Log DENV-2 viremia reduction ([5]; 60 mg/kg q.d.) | Log DENV-2 viremia reduction [6] |
| --- | --- | --- | --- | --- | --- | --- | --- | --- | --- | --- |
| CC1Cc2sc(NC(=O)Cc3ccc(S(N)(=O)=O)cc3)c(C#N)c2CN1Cc1cccc(F)c1 (stereo not drawn) [Example 53, N-(3-cyano-5-(3-fluorobenzyl)-6-methyl-4,5,6,7-tetrahydrothieno[3,2-c]pyridin-2-yl)-2-(4-sulfamoylphenyl)acetamide] | 100 to 1000 nM | < 100 nM | < 100 nM | < 100 nM | 0.80 Log | 1.78 Log | 1.06 Log |  |  |  |
| CC1(C)Cc2sc(NC(=O)Cc3ccc(S(N)(=O)=O)cc3)c(C#N)c2CN1CC1CCCCC1 [Example 71, N-(3-cyano-5-(cyclohexylmethyl)-6,6-dimethyl-4,5,6,7-tetrahydrothieno[3,2-c]pyridin-2-yl)-2-(4-sulfamoylphenyl)acetamide] | < 100 nM | < 100 nM | < 100 nM | < 100 nM | 1.45 Log | 3.0 Log |  | 0.51 Log | 1.54 Log | 1.49 Log |
| COc1cc(CC(=O)Nc2sc3c(c2C#N)CN(CC2CCCCC2)CC3)ccc1S(N)(=O)=O [Example 83, N-(3-cyano-5-(cyclohexylmethyl)-4,5,6,7-tetrahydrothieno[3,2-c]pyridin-2-yl)-2-(3-methoxy-4-sulfamoylphenyl)acetamide] |  |  |  |  | 0.60 Log |  | 0.94 Log |  |  |  |
| CC1(C)Cc2sc(NC(=O)Cc3ccc(S(N)(=O)=O)cc3)c(C#N)c2CN1CC1CC(F)(F)C1 [Example 77, N-(3-cyano-5-((3,3-difluorocyclobutyl)methyl)-6,6-dimethyl-4,5,6,7-tetrahydrothieno[3,2-c]pyridin-2-yl)-2-(4-sulfamoylphenyl)acetamide] | 100 to 1000 nM | < 100 nM | < 100 nM | < 100 nM | 0.62 Log |  |  |  |  |  |
| N#Cc1c(NC(=O)Cc2ccc(S(N)(=O)=O)cc2)sc2c1CCN(Cc1cccc(F)c1)C2 [Example 100, N-(3-cyano-6-(3-fluorobenzyl)-4,5,6,7-tetrahydrothieno[2,3-c]pyridin-2-yl)-2-(4-sulfamoylphenyl)acetamide] |  |  |  |  |  | 1.50 Log |  |  |  |  |
| CCOc1cc(CC(=O)Nc2sc3c(c2C#N)CN(CC2CCCCC2)CC3)ccc1S(N)(=O)=O [Example 12, N-(3-cyano-5-(cyclohexylmethyl)-4,5,6,7-tetrahydrothieno[3,2-c]pyridin-2-yl)-2-(3-ethoxy-4-sulfamoylphenyl)acetamide] | < 100 nM | < 100 nM | < 100 nM | < 100 nM |  |  |  |  |  |  |
| CC1Cc2c(sc(NC(=O)Cc3ccc(S(N)(=O)=O)cc3)c2C#N)CN1Cc1cccc(F)c1 (stereo not drawn) [Example 122, N-(3-cyano-6-(3-fluorobenzyl)-5-methyl-4,5,6,7-tetrahydrothieno[2,3-c]pyridin-2-yl)-2-(4-sulfamoylphenyl)acetamide] | > 1000 nM | < 100 nM | 100 to 1000 nM | < 100 nM |  |  |  |  |  |  |
| COc1cc(F)cc(CC(=O)Nc2sc3c(c2C#N)CN(Cc2cccc(F)c2)CC3)c1 [Example 35, N-(3-cyano-5-(3-fluorobenzyl)-4,5,6,7-tetrahydrothieno[3,2-c]pyridin-2-yl)-2-(3-fluoro-5-methoxyphenyl)acetamide] | > 1000 nM | 100 to 1000 nM | 100 to 1000 nM | 100 to 1000 nM |  |  |  |  |  |  |
| N#Cc1c(NC(=O)Cc2ccc(S(N)(=O)=O)cc2)sc2c1CCN(Cc1cc(Cl)ccc1Cl)C2 [Example 109, N-(3-cyano-6-(2,5-dichlorobenzyl)-4,5,6,7-tetrahydrothieno[2,3-c]pyridin-2-yl)-2-(4-sulfamoylphenyl)acetamide] | > 1000 nM | 100 to 1000 nM | 100 to 1000 nM | 100 to 1000 nM |  | 1.60 Log |  |  |  |  |
| N#Cc1c(NC(=O)Cc2ccc(S(N)(=O)=O)cc2)sc2c1CCN(Cc1cc(F)ccc1F)C2 [Example 113, N-(3-cyano-6-(2,5-difluorobenzyl)-4,5,6,7-tetrahydrothieno[2,3-c]pyridin-2-yl)-2-(4-sulfamoylphenyl)acetamide] | 100 to 1000 nM | < 100 nM | < 100 nM | < 100 nM |  |  |  |  |  |  |

Reference: patent US12012417B2, “N-substituted tetrahydrothienopyridine derivatives and uses thereof” (NOVARTIS AG, priority 2018, dated 2024)
